Data from US7884120B2, “2,4,5-trisubstituted imidazoles and their use as anti-microbial agents” (Lorus Therapeutics Inc., priority 2002, dated 2011).
In brackets after ≈: the same amount, converted by molar mass.

Tested on: S. aureus, MRSA 1A-218, 1A-318, 1B-374, 1B-315, 1B-185, 1B387 and MSSA ATCC-6538, ATCC-29213
Assay: MIC by standard microdilution method against S. aureus (MRSA and MSSA strains)
Type: cell-based
Details: Staphylococcus aureus; against all 8 strains of S. aureus tested except where indicated; microdilution, Ca-MHB, 35° C., 24 hr; read-out: MIC
Method: A standard microdilution method (NCCLS, 2000; Document M7-A5) was used to determine the minimum inhibitory concentrations (MICs) against S. aureus, methicillin-resistant strains (MRSA); 1A-218, 1A-318, 1B-374, 1B-315, 1B-185, 1B387 (Simor et al. 1999 Can Commun Dis Rep; 25:105-108) and methicillin-sensitive strains (MSSA); ATCC-6538 and ATCC-29213. The MICs of some compounds were also determined against other Gram-positive bacteria: Enterococcus faecium (ATCC 51559), Enterococcus faecalis (ATCC-51299, ATCC-29212) and Staphylococcus epidermidis (ATCC-35983).
Mueller-Hinton broth (MHB) is recommended as the medium of choice for susceptibility testing of commonly isolated, rapidly growing aerobic organisms such as the Gram-positive bacteria included in this study. A “cation-adjusted Mueller-Hinton broth” (Ca-MHB) was prepared by first preparing standard MHB from a dehydrated base as recommended by the manufacturer.
Single colonies from fresh agar plates of the different bacterial cultures were sub-cultured overnight in 3 ml of Tryptic soy broth (TSB) at 37° C. with shaking at 250 RPM. After 18-20 hours of incubation, the absorbance at λ=600 nm (OD600) were determined for each culture and adjusted to a final OD600=0.1 (4.2×10^7 cfu/ml). Bacterial suspensions were then diluted 1:200 in sterile Ca-MHB for the in vitro susceptibility test, with each well of the microtitre plate containing approximately 2×10^5 cfu/ml.
Stock solutions of the different test compounds were prepared at concentrations of 1,280 μg/ml, 640 μg/ml, or 320 μg/ml in 50% DMSO (dimethyl sulfoxide). Serial two-fold dilutions were then prepared in 50% DMSO (the working concentrations were 1:10 of the stock concentrations in 100 μl culture suspensions). The filled microtitre plates were sealed in plastic bags and incubated at 35° C. for 24 hr in an ambient air incubator with shaking at 250 RPM. MIC values were determined as the lowest concentration where complete inhibition of the visible bacterial growth was observed by the unaided eye and confirmed by the measurement of the optical density (OD600).

In the case of O=C(O)c1ccc(-c2nc(-c3ccc(Br)cc3)c(-c3ccc(Br)cc3)[nH]2)cc1 [Compound 65], the MIC is reported as 16 µg/mL (≈ 32.1 µM).

Cc1[nH]c2ccccc2c1-c1nc(-c2cccs2)c(-c2cccs2)[nH]1 [Compound 25] gave an MIC of 32 to 64 µg/mL (≈ 88.5 to 177 µM).

With COc1ccc(-c2nc(-c3cccc(Cl)c3Cl)c(-c3ccccc3)[nH]2)cc1O [Compound 70] the MIC was 8 µg/mL (≈ 19.5 µM).

Ic1cccc(-c2nc(-c3c[nH]c4ccccc34)[nH]c2-c2cccc(I)c2)c1 [Compound 56] gave an MIC of 1 µg/mL (≈ 1.7 µM).

With Fc1ccc(-c2nc(-c3ccc4[nH]ccc4c3)[nH]c2-c2ccccc2)cc1 [Compound 76] the MIC was > 128 µg/mL.

In the case of Brc1ccc2[nH]cc(-c3nc(-c4ccccc4)c(-c4ccc(-c5ccccc5)cc4)[nH]3)c2c1 [Compound 48], the MIC is reported as 4 to 8 µg/mL (≈ 8.16 to 16.3 µM).

Cc1[nH]c2ccccc2c1-c1nc(-c2cccc(Cl)c2)c(-c2cccc(Cl)c2)[nH]1 [Compound 21] was tested, and the MIC was 8 to 16 µg/mL (≈ 19.1 to 38.2 µM).

In the case of O=C(O)c1ccc(-c2nc(-c3ccc4c(c3)-c3cc(-c5[nH]c(-c6ccc(C(=O)O)cc6)nc5-c5ccccc5)ccc3C4=O)c(-c3ccccc3)[nH]2)cc1 [Compound 72], the MIC is reported as 0.5 to 2 µg/mL (≈ 0.709 to 2.84 µM).

In the case of Cc1[nH]c2ccccc2c1-c1nc(-c2ccc(-c3ccccc3)cc2)c(-c2ccc(-c3ccccc3)cc2)[nH]1 [Compound 40], the MIC is reported as > 128 µg/mL.

Work on COc1cccc(-c2nc(-c3c[nH]c4ccc(Br)cc34)[nH]c2-c2cccc(OC)c2)c1 [Compound 84] yielded an MIC of 2 µg/mL (≈ 4.22 µM).

In the case of Brc1ccc2[nH]cc(-c3nc(-c4ccccc4)c(-c4ccc(N5CCCCC5)cc4)[nH]3)c2c1 [Compound 50], the MIC is reported as > 64 µg/mL.

Cc1ccc(-c2nc(-c3c(C)[nH]c4ccccc34)[nH]c2-c2ccc(C)cc2)cc1 [Compound 23] showed an MIC of 4 to 8 µg/mL (≈ 10.6 to 21.2 µM).

For Oc1cccc(-c2nc(-c3ccc(-c4ccccc4)cc3)c(-c3ccccc3)[nH]2)c1 [Compound 62], the MIC was 2 µg/mL (≈ 5.15 µM).

In the case of Fc1ccc(-c2[nH]c(-c3c[nH]c4ccc(Br)cc34)nc2-c2ccncc2)cc1 [Compound 28], the MIC is reported as 2 µg/mL (≈ 4.62 µM).

COc1ccccc1-c1nc(-c2c(C)[nH]c3ccccc23)[nH]c1-c1ccccc1OC [Compound 17] showed an MIC of 16 µg/mL (≈ 39.1 µM).

With Oc1cccc(-c2nc(-c3ccccc3)c(-c3cccc4ccccc34)[nH]2)c1 [Compound 61] the MIC was 8 µg/mL (≈ 22.1 µM).

Cc1[nH]c2ccc(N)cc2c1-c1nc(-c2ccc(F)cc2)c(-c2ccccc2)[nH]1 [Compound 75] gave an MIC of 32 µg/mL (≈ 83.7 µM).

Compound Clc1ccc(-c2nc(-c3c[nH]c4ccc(Br)cc34)[nH]c2-c2ccc(-c3ccccc3)cc2)cc1 [Compound 51] has an MIC of 16 µg/mL (≈ 30.5 µM).

Work on Oc1ccc(-c2nc(-c3ccc(Br)cc3)c(-c3ccccc3)[nH]2)cc1 [Compound 58] yielded an MIC of 4 µg/mL (≈ 10.2 µM).

With Cc1ccc(C)c(-c2nc(-c3cccc(O)c3)[nH]c2-c2ccccc2)c1 [Compound 71] the MIC was 8 µg/mL (≈ 23.5 µM).

For Brc1ccc2[nH]cc(-c3nc4c5cc(I)ccc5c5ccc(I)cc5c4[nH]3)c2c1 [Compound 52], the MIC was > 64 µg/mL.

For Cc1[nH]c2ccccc2c1-c1nc(-c2ccc(F)cc2)c(-c2ccc(F)cc2)[nH]1 [Compound 7], the MIC was 4 to 16 µg/mL (≈ 10.4 to 41.5 µM).

With Cc1[nH]c2ccc([N+](=O)[O-])cc2c1-c1nc(-c2ccc(F)cc2)c(-c2ccccc2)[nH]1 [Compound 77] the MIC was > 128 µg/mL.

Fc1ccc(-c2[nH]c(-c3c[nH]c4ccccc34)nc2-c2ccccc2)cc1 [Compound 37] was tested, and the MIC was > 128 µg/mL.

Ic1ccc2c3ccccc3c3[nH]c(-c4c[nH]c5ccccc45)nc3c2c1 [Compound 53] was tested, and the MIC was 1 µg/mL (≈ 2.18 µM).
